Data published in patent publication US11098040B2, “Compounds and methods of use” (Ferro Therapeutics, Inc., priority 2018, dated 2021).

Tests used:
[1] = Whole blood stability, human; assay type: in vitro ADME
Text: (§1) The results of the assay on stability in blood and IC50 values for pancreatic cancer cell line KP4 are given below in Table 24.

[2] = system: KP4; assay: Cell viability assay (CellTiter Glo), pancreatic ductal adenocarcinoma KP4; assay type: cell-based, human; conditions: Homo sapiens, KP-4, 96 h, pancreatic cancer cell line KP4, 96 hours, CellTiter Glo; read-out: IC50 μM KP4
Protocol: (§2) Cell viability assay was performed to assess the potency of the compounds in human cancer cell lines KP4 (pancreatic ductal adenocarcinoma), MiaPaCa-2 (pancreatic carcinoma), AsPC-1 (pancreatic adenocarcinoma, ascites), 143B (osteosarcoma), and SJSA-1 (osteosarcoma). Selected compounds were also assayed in a human breast epithelial cell line MCF-10A, a nontumorigenic cell line as a control to assess differential activity. Cells at a density of 500-5,000 cells/well were seeded in 96-well plates and incubated at 37° C. overnight. A series of 9 different concentrations of compound stocks (500×) were created by 3-fold serial dilution in DMSO. These compounds were further diluted in culture media and then added to cells so that the final DMSO concentration was equal to 0.25% or less. After 96 hours of incubation, 50 μL of CellTiter Glo reagent (Promega) was added to each well and luminescence was measured after 10 minutes using EnVision (PerkinElmer). Compounds titrated from top concentration of up to 30 μM. The select compounds were tested initially from 30 μM as the top concentration in duplicates (range of 4.6 nM-30 μM). […] Luminescence from cells treated with DMSO alone was set as Max and % of inhibition was calculated as follows: Inhibition %=(Max-Sample value)/Max*100. Data was analyzed using XL-fit software (ID Business Solutions Ltd.). IC50, relative IC50, or % of top inhibition was calculated.
as §2, with “in” for “in human”, “line” for “lines”, “adenocarcinoma).” for “adenocarcinoma), MiaPaCa-2 (pancreatic carcinoma), AsPC-1 (pancreatic adenocarcinoma, ascites), 143B (osteosarcoma), and SJSA-1 (osteosarcoma). Selected compounds were also assayed in a human breast epithelial cell line MCF-10A, a nontumorigenic cell line as a control to assess differential activity.”, “1,000-10,000” for “500-5,000”, “All” for “Compounds titrated from top concentration of up to 30 μM. The select”
as §1

[3] = Whole blood stability, mouse; assay type: in vitro ADME
Text: as §1

Whole Blood Stability % Remaining at 37° C. Human ([1]; 0 min) [%] | Whole Blood Stability % Remaining at 37° C. Human ([1]; 30 min) [%] | Whole Blood Stability % Remaining at 37° C. Human ([1]; 60 min) [%] | IC50 [2] [µM] | Whole Blood Stability % Remaining at 37° C. Mouse ([3]; 0 min) [%] | Whole Blood Stability % Remaining at 37° C. Mouse ([3]; 30 min) [%] | Whole Blood Stability % Remaining at 37° C. Mouse ([3]; 60 min) [%] | SMILES
100.0 | 62.1 | 38.1 | 0.5 to 1 | 100.0 | 85.3 | 75.9 | COC(=O)[C@H]1Cc2c([nH]c3ccccc23)[C@H](c2ccc(S(=O)(=O)N[C@]34C[C@H]5C[C@H](C[C@H](C5)C3)C4)cc2)N1C(=O)/C=C/CCl [Compound 30]
100.0 | 84.0 | 54.3 | 0.5 to 1 | 100.0 | 82.2 | 65.0 | COC(=O)[C@H]1Cc2c([nH]c3ccccc23)[C@H](c2ccc(C(=O)NC(C(=O)O)C(C)(C)C)cc2)N1C(=O)CCl (single isomer, unassigned) [Compound 10]
100.0 | 54.9 | 25.7 | > 1 | 100.0 | 76.5 | 43.8 | CC(=O)Nc1ccc([C@@H]2c3[nH]c4ccccc4c3C[C@H](C(=O)N(C)C)N2C(=O)CCl)cc1 [Compound 71a]
100.0 | 28.0 | 7.0 | 0.01 to 0.1 | 100.0 | 0.0 | 0.2 | COC(=O)c1ccc([C@H]2c3c(c4ccccc4n3C)C[C@H](C(=O)OC)N2C(=O)CCl)cc1 [Compound 72]
100.0 | 49.4 | 32.6 | 0.1 to 0.5 | 100.0 | 90.0 | 75.5 | COC(=O)[C@H]1Cc2c([nH]c3ccccc23)[C@H](c2ccc(C(=O)N3CCNCC3)cc2)N1C(=O)CCl [Compound 31]
100.0 | 36.8 | 20.6 | 0.01 to 0.1 | 100.0 | 65.0 | 36.9 | CN(C)C(=O)[C@H]1Cc2c([nH]c3ccccc23)[C@H](c2ccc(S(=O)(=O)C(C)(C)C)cc2)N1C(=O)CCl [Compound 68]
100.0 | 49.7 | 24.3 | 0.01 to 0.1 | 100.0 | 14.0 | 3.2 | CN(C)C(=O)[C@H]1Cc2c([nH]c3ccccc23)[C@H](c2ccc(C(=O)OC(C)(C)C)cc2)N1C(=O)CCl [Compound 21]
100.0 | 29.1 | 10.9 | < 0.01 | 100.0 | 0.0 | 0.0 | COC(=O)c1ccc([C@H]2c3[nH]c4cc(Br)ccc4c3C[C@H](C(=O)OC)N2C(=O)CCl)cc1 [Compound 96]
100.0 | 44.4 | 35.6 | < 0.01 | 100.0 | 44.5 | 21.2 | CC(C)(C)OC(=O)c1ccc([C@H]2c3[nH]c4ccccc4c3C[C@H](C(=O)OC(C)(C)C)N2C(=O)CCl)cc1 [Compound 19]
100.0 | 34.9 | 29.2 | 0.1 to 0.5 | 100.0 | 0.0 | 0.0 | COC(=O)[C@H]1Cc2c([nH]c3ccccc23)[C@H](c2ccc(OC(=O)C(C)(C)C)cc2)N1C(=O)CCl [Compound 13]
100.0 | 43.0 | 13.7 | > 1 | 100.0 | 82.5 | 52.5 | CN(C)C(=O)[C@H]1Cc2c([nH]c3ccccc23)[C@H](c2ccc(S(=O)(=O)N3CCC(O)CC3)cc2)N1C(=O)CCl [Compound 49]
100.0 | 87.7 | 58.3 | < 0.01 | 100.0 | 0.0 | 0.0 | COC(=O)[C@H]1Cc2c([nH]c3ccccc23)[C@H](c2ccc(C(=O)OCC3(C)CC3)cc2)N1C(=O)CCl [Compound 84]
100.0 | 59.3 | 60.7 | 0.01 to 0.1 | 100.0 | 84.1 | 38.9 | CN(C)C(=O)[C@H]1Cc2c([nH]c3ccccc23)[C@H](c2ccc(NC(=O)OC(C)(C)C)cc2)N1C(=O)CCl [Compound 56]
100.0 | 56.6 | 59.9 | 0.5 to 1 | 100.0 | 0.0 | 0.0 | COC(=O)[C@H]1Cc2c([nH]c3ccccc23)[C@@H](c2ccc(OC(=O)C(C)(C)C)cc2)N1C(=O)CCl [Compound 13a]
100.0 | 79.2 | 54.8 | < 0.01 | 100.0 | 0.0 | 0.0 | CC[C@H]1Cc2c([nH]c3ccccc23)[C@H](c2ccc(C(=O)OC)cc2)N1C(=O)CCl [Compound 98]
100.0 | 104.7 | 103.8 | > 1 | 100.0 | 78.9 | 69.3 | COC(=O)[C@H]1Cc2c([nH]c3ccccc23)[C@H](c2ccc(C(=O)OC(C)(C)C)cc2)N1C(=O)C(C)Cl (stereo partly drawn) [Compound 33]
100.0 | 0.1 | 0.1 | > 1 | 100.0 | 0.0 | 0.0 | COC(=O)[C@H]1Cc2c([nH]c3ccccc23)[C@H](c2ccc(C(=O)N3CCC(O)CC3)cc2)N1C(=O)CCl [Compound 32]
100.0 | 54.8 | 33.0 | 0.01 to 0.1 | 100.0 | 12.4 | 4.7 | COC(=O)[C@H]1Cc2c([nH]c3ccccc23)[C@H](c2ccc(C(=O)OC[C@]34C[C@H]5C[C@H](C[C@H](C5)C3)C4)cc2)N1C(=O)CCl [Compound 6]
